Experimental data reported in ChEMBL document CHEMBL1153520, “A multivalent approach to the design and discovery of orally efficacious 5-HT4 receptor agonists” (J Med Chem, 2009).

Columns and labels:
[1] = molecular target: T1, 5-hydroxytryptamine receptor 4 (Homo sapiens, UniProt Q13639); experiment: Agonist activity at human 5HT4C receptor expressed in HEK293 cells assessed as accumulation of cAMP by flash plate adenylyl cyclase activation assay; format: functional, cell-based
[2] = Permeability across human Caco-2 cells assessed as permeability coefficient; format: ADME, cell-based; conditions: read-out: permeability
[3] = molecular target: T1, 5-hydroxytryptamine receptor 4; experiment: Intrinsic activity at human 5HT4C receptor expressed in HEK293 cells assessed as accumulation of cAMP by flash plate adenylyl cyclase activation assay relative to serotonin; format: functional, cell-based
[4] = molecular target: hERG (KCNH2) (Homo sapiens, UniProt Q12809); experiment: Inhibition of human ERG potassium channel expressed in CHO-K1 cells at 3 uM by whole cell voltage clamp assay; format: cell-based; conditions: CHO-K1 cells expressing human ERG potassium channel
[5] = species: Homo sapiens; experiment: Selectivity ratio of Ki for human 5HT3A receptor to Ki for human 5HT4C receptor
[6] = molecular target: T1, 5-hydroxytryptamine receptor 4; experiment: Displacement of [H]GR-113808 from human 5HT4C receptor expressed in HEK293 cells by liquid scintillation counting; format: cell-based
[7] = Cmax in Sprague-Dawley rat at 5 mg/kg, po; format: ADME, organism-based; design: dose 5 mg/kg, route oral; conditions: in vivo
[8] = in vitro; conditions: rat, liver microsomes
[9] = Oral bioavailability in Sprague-Dawley rat at 5 mg/kg, po; format: ADME, organism-based; conditions: in vivo
[10] = AUC (0 to t) in Sprague-Dawley rat at 5 mg/kg, po; format: ADME, organism-based; design: dose 5 mg/kg, route oral; conditions: plasma
[11] = Half life in Sprague-Dawley rat at 5 mg/kg, po; format: ADME, organism-based; design: dose 5 mg/kg, route oral; conditions: in vivo
[12] = system: Rattus norvegicus; experiment: Induction of 5HT4 receptor-mediated relaxation of esophagus in iv dosed anesthetized Sprague-Dawley rat by digital sonomicrometry; format: functional
[13] = Oral bioavailability in human; format: ADME, organism-based; conditions: in vivo

T1 sequence (Q13639 whole entry): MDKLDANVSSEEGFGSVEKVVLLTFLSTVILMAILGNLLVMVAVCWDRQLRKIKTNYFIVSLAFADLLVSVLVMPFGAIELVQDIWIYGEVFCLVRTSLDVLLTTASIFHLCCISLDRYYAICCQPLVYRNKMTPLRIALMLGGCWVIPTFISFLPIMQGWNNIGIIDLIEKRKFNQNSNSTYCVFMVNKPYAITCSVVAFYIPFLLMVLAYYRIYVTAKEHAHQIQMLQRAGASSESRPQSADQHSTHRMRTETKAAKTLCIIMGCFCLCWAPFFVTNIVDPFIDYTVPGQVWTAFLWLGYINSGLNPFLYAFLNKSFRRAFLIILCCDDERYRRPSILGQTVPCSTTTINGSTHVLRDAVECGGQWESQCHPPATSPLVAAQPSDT
hERG (KCNH2), sequence (Q12809 whole entry): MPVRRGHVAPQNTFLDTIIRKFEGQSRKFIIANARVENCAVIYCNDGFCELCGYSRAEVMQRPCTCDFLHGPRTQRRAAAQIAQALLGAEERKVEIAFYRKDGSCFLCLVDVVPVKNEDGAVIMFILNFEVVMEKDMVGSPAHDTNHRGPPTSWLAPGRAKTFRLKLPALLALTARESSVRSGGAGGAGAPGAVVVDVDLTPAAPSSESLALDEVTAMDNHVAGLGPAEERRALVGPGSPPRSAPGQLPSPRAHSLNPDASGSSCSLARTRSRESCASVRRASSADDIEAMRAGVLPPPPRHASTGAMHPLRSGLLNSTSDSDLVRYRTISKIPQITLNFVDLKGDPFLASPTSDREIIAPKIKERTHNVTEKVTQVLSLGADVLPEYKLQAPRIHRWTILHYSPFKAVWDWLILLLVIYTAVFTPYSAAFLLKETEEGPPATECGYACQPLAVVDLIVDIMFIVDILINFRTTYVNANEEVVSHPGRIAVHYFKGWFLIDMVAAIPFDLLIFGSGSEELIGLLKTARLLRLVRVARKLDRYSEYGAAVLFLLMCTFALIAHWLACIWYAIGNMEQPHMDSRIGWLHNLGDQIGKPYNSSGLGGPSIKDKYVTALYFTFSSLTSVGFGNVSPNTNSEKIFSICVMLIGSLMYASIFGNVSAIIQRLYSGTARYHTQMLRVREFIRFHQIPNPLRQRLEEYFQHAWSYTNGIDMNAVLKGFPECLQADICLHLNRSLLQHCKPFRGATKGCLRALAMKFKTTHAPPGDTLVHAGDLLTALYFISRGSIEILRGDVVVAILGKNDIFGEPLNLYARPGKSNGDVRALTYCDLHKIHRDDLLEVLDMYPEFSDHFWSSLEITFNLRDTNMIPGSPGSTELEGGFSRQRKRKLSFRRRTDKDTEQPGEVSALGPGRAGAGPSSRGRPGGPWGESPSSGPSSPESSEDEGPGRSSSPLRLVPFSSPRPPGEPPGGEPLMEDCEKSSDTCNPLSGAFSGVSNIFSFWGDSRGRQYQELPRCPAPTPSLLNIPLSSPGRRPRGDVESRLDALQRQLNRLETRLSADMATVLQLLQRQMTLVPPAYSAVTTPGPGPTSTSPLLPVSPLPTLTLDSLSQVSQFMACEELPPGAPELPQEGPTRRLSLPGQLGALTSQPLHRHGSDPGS

| SMILES | EC50 [1] [nM] | Papp [2] [×10⁻⁶ cm/s] | Intrinsic activity [3] [%] | inhibition at 3 µM [4] [%] | Ratio Ki [5] | Ki [6] [nM] | Cmax [7] [ng/mL] | half-life [8] [h] | bioavailability [9] [%] | AUC(0-t) [10] [ng·h/mL] | half-life [11] [h] | ED50 [12] [mg/kg] | bioavailability [13] [%] |
| --- | --- | --- | --- | --- | --- | --- | --- | --- | --- | --- | --- | --- | --- |
| CCOC(=O)N1CCN(CCCCCCCN2[C@@H]3CC[C@H]2C[C@@H](NC(=O)c2cc4ccccc4n(C(C)C)c2=O)C3)CC1 | 3.16 | 14 | > 100 | 87 | 810 | 7.94 | – | – | – | – | – | – | – |
| CC(C)n1c(=O)c(C(=O)N[C@H]2C[C@H]3CC[C@@H](C2)N3CCCCCCCN2CCC[C@@H]2C(N)=O)cc2ccccc21 | 0.398 | 9 | > 100 | 7 | 20000 | 2 | – | – | – | – | – | – | – |
| CC(C)n1c(=O)c(C(=O)N[C@H]2C[C@H]3CC[C@@H](C2)N3CCCN2CCC[C@@H]2C(N)=O)cc2ccccc21 | 3.98 | 2 | > 100 | 12 | 1500 | 50.1 | – | – | – | – | – | – | – |
| CC(C)n1c(=O)c(C(=O)N[C@H]2C[C@H]3CC[C@@H](C2)N3CCCN2CCOCC2)cc2ccccc21 | 2.51 | 22 | > 100 | 80 | 750 | 39.8 | – | – | – | – | – | – | – |
| CC(C)n1c(=O)c(C(=O)N[C@H]2C[C@H]3CC[C@@H](C2)N3CCCCCCCN2CCCCC2)cc2ccccc21 | 0.794 | 23 | 90 | 9 | 10000 | 2.51 | – | – | – | – | – | – | – |
| CCOC(=O)N1CCN(CCCN2[C@@H]3CC[C@H]2C[C@@H](NC(=O)c2cc4ccccc4n(C(C)C)c2=O)C3)CC1 | 2.51 | 31 | > 100 | 75 | 1300 | 39.8 | – | – | – | – | – | – | – |
| CC(C)n1c(=O)c(C(=O)N[C@H]2C[C@H]3CC[C@@H](C2)N3CCCCCCCN2CCN(S(C)(=O)=O)CC2)cc2ccccc21 | 2.51 | 22 | > 100 | 46 | 2600 | 10 | 10 | > 1.5 | 20 | 83 | 20.3 | – | – |
| CC(C)n1c(=O)c(C(=O)N[C@H]2C[C@H]3CC[C@@H](C2)N3CCCCCCCN(C)CCCN(C)S(C)(=O)=O)cc2ccccc21 | 0.631 | 3 | 96 | 12 | 6500 | 5.01 | – | – | – | – | – | – | – |
| CC(C)n1c(=O)c(C(=O)N[C@H]2C[C@H]3CC[C@@H](C2)N3C[C@H](O)CN2CCN(S(C)(=O)=O)CC2)cc2ccccc21 | 1.26 | 20 | > 100 | 6 | 1300 | 50.1 | – | – | – | – | – | – | – |
| CC(C)n1c(=O)c(C(=O)N[C@H]2C[C@H]3CC[C@@H](C2)N3CCCN2CCN(c3ccccc3)CC2)cc2ccccc21 | 0.794 | 22 | > 100 | 90 | 1000 | 7.94 | – | – | – | – | – | – | – |
| CC(C)n1c(=O)c(C(=O)N[C@H]2C[C@H]3CC[C@@H](C2)N3CCCN2CCN(S(C)(=O)=O)CC2)cc2ccccc21 | 1.58 | 20 | > 100 | 38 | 2300 | 39.8 | 34 | 0.683 | 38 | 183 | 7.9 | – | – |
| CC(C)n1c(=O)c(C(=O)N[C@H]2C[C@H]3CC[C@@H](C2)N3CCCCCCCN2CCC(CNS(C)(=O)=O)CC2)cc2ccccc21 | 0.631 | 2 | 98 | 5 | 3100 | 2.51 | – | – | – | – | – | – | – |
| COc1cc(N)c(Cl)cc1C(=O)NC1CCN(CCCOc2ccc(F)cc2)CC1OC (centres undefined) [CISAPRIDE] | – | – | – | – | – | – | – | – | – | – | – | 0.142 | – |
| CC(C)n1c(=O)c(C(=O)N[C@H]2C[C@H]3CC[C@@H](C2)N3CCCCCCCN2CCN(c3ccccc3)CC2)cc2ccccc21 | 7.94 | 20 | > 100 | 97 | 5300 | 3.98 | – | – | – | – | – | – | – |
| CC(C)n1c(=O)c(C(=O)N[C@H]2C[C@H]3CC[C@@H](C2)N3CCCN2CCC(CNS(C)(=O)=O)CC2)cc2ccccc21 | 1 | 3 | > 100 | 14 | 11000 | 5.01 | – | – | – | – | – | – | – |
| CC(C)n1c(=O)c(C(=O)N[C@H]2C[C@H]3CC[C@@H](C2)N3CCCCCCCN2CCOCC2)cc2ccccc21 | 2.51 | 28 | > 100 | 34 | 1600 | 2 | – | – | – | – | – | – | – |
| CC(C)n1c(=O)c(C(=O)N[C@H]2C[C@H]3CC[C@@H](C2)N3CCCN2CCCCC2)cc2ccccc21 | 2 | 24 | > 100 | 39 | 9200 | 6.31 | – | – | – | – | – | – | – |
| CC(C)n1c(=O)c(C(=O)N[C@H]2C[C@H]3CC[C@@H](C2)N3CCCN(C)CCCN(C)S(C)(=O)=O)cc2ccccc21 | 10 | 4 | > 100 | 6 | 210 | 200 | – | – | – | – | – | – | – |
| CCCCCNC(=N)N/N=C/c1c[nH]c2ccc(OC)cc12 [TEGASEROD] | – | 11 | – | – | – | – | 6 | > 1.5 | 5 | 21 | 1.8 | 0.0106 | 10 |
| CC(C)n1c(=O)c(C(=O)N[C@H]2C[C@H]3CC[C@@H](C2)N3CCCCCN2CCN(S(C)(=O)=O)CC2)cc2ccccc21 | 1.26 | – | > 100 | – | 2800 | 15.8 | – | – | – | – | – | – | – |
| CC(C)n1c(=O)c(C(=O)N[C@H]2C[C@H]3CC[C@@H](C2)N3CCN2CCCCC2)cc2ccccc21 | 10 | – | > 100 | – | 720 | 79.4 | – | – | – | – | – | – | – |
| CC(C)n1c(=O)c(C(=O)N[C@H]2C[C@H]3CC[C@@H](C2)N3CC(O)CN2CCN(S(C)(=O)=O)CC2)cc2ccccc21 (mixture of isomers) | 0.794 | 19 | > 100 | 10 | 2400 | 20 | – | – | – | – | – | – | – |
| CC(C)n1nc(C(=O)NC2CCNCC2)c2ccccc21 | 200 | – | 50 | – | 0.52 | 398 | – | – | – | – | – | – | – |
